Experimental findings from patent publication US9115137B2, “2,3,4,5-tetrahydro-1H-pyrido[4,3-B]indole compounds and methods of use thereof” (priority 2008, dated 2015) are described below.

Test [1] deals with T1, human recombinant serotonin (5-Hydroxytryptamine) 5-HT6 receptor (Homo sapiens, UniProt P50406).
T1 construct: expressed in transfected cells; host or cells: human HeLa cells
Briefly: Serotonin 5-HT6 radioligand binding ([3H]LSD). Conditions: compound at 1 μM; HeLa cells; read-out: Serotonin (1 μM) 5-HT6, percent inhibition of specific binding. Summed up:
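HeLa membranes expressing receptor, in 50 mM Tris-HCl pH 7.4 with 150 mM NaCl, 2 mM ascorbate, 0.001% BSA, incubated with 1.5 nM [3H]LSD for 120 min at 37 °C. Nonspecific binding defined with 5 μM 5-HT.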

Test [2] deals with T2, human recombinant histamine H2 receptor (Homo sapiens, UniProt P25021).
T2 construct: expressed in transfected cells; host or cells: CHO-K1 cells
T2 sequence (P25021 whole entry): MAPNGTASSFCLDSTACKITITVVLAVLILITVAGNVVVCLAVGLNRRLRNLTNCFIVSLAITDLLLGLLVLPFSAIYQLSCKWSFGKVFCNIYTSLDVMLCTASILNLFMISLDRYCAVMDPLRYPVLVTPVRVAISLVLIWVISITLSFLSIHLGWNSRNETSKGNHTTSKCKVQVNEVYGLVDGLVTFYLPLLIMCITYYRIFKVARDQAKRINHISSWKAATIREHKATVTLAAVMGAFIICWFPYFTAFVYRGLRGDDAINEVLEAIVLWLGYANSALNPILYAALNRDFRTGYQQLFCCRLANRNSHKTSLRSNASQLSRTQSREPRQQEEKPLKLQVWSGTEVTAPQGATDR
The test is described as follows: Histamine H2 radioligand binding ([125I]aminopotentidine). Conditions: compound at 1 μM; CHO K1 cells; read-out: Histamine Binding (1 μM) H2, percent inhibition of specific binding. In outline:
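CHO-K1 membranes expressing the receptor were incubated in 50 mM phosphate buffer pH 7.4 with 0.1 nM [125I]aminopotentidine for 120 minutes at 25° C., with nonspecific binding defined by 3 μM tiotidine. Compounds were tested at 1 μM (1% DMSO); bound radioligand was counted after filtration, values given as percent inhibition of specific binding.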

The target of test [3] is T3, human recombinant serotonin (5-Hydroxytryptamine) 5-HT2C receptor (Homo sapiens, UniProt P28335).
T3 construct: expressed in transfected cells; host or cells: CHO-K1 cells
T3 sequence (P28335 33-458): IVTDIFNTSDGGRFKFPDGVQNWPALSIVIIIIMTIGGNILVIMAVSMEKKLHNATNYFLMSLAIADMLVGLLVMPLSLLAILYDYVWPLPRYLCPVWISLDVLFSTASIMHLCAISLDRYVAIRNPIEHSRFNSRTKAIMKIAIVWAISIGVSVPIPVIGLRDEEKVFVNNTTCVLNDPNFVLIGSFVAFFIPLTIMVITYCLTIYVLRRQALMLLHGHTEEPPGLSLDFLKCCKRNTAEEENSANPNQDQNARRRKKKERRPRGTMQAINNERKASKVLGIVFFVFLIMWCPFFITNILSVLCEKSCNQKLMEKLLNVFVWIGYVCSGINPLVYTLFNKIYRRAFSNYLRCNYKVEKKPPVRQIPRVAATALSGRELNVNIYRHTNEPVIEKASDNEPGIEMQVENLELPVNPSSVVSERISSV
The test is described as follows: Serotonin 5-HT2C radioligand binding ([3H]Mesulergine). Conditions: compound at 1 μM; CHO-K1 cells; read-out: Serotonin (1 μM) 5-HT2C, percent inhibition of specific binding. Summed up:
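Membranes from CHO-K1 cells expressing the human receptor were incubated 60 min at 25 °C with 1 nM [3H]mesulergine in 50 mM Tris-HCl pH 7.4 with ascorbic acid and pargyline; 1 μM mianserin defined non-specific binding.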

Test [4] deals with T4, human recombinant adrenergic α2A receptor (Homo sapiens, UniProt P08913).
T4 construct: expressed in transfected cells; host or cells: insect Sf9 cells
T4 sequence (P08913 1-465): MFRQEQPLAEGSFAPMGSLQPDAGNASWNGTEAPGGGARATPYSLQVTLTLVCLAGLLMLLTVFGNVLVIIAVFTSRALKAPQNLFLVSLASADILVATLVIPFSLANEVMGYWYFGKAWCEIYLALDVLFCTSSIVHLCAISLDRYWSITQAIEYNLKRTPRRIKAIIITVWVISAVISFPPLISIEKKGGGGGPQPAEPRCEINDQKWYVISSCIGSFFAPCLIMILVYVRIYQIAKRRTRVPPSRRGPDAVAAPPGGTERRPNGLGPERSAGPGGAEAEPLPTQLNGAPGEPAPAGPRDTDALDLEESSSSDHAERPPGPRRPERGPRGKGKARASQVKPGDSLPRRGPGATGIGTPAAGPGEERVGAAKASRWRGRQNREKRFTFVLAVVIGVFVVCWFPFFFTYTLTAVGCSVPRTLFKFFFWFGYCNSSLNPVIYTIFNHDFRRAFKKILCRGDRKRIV
The test is described as follows: Adrenergic α2A radioligand binding ([3H]MK-912). The note with it: compound at 1 μM; insect Sf9 cells; read-out: Adrenergic (1 μM) α2A, percent inhibition of specific binding. In outline:
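Membranes from Sf9 cells expressing the receptor were incubated with 1 nM [3H]MK-912 for 60 min at 25 °C in Tris-HCl pH 7.4 with MgCl2 and EDTA. Nonspecific binding defined by 10 μM WB-4101; compounds tested at ≤1 μM (1% DMSO), reported as percent inhibition of specific binding.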

T1 sequence (P50406 whole entry): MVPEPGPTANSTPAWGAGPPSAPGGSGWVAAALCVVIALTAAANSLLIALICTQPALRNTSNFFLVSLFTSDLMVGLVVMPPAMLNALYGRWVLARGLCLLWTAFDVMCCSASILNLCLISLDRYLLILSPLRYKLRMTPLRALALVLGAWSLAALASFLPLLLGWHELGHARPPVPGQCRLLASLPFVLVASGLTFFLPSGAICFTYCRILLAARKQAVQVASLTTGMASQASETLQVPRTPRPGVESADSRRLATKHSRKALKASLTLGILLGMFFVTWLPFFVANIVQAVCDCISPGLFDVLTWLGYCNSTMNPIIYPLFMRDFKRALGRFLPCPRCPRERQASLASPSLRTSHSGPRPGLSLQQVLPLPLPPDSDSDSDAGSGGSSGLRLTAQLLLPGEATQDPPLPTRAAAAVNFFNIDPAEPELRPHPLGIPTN

In general, inhibition refers to the drop in the measured response relative to a control, in per cent. `Cc1ccc2c(c1)c1c(n2CCC#N)CCN(C)C1` [CD92, 3-(2,8-dimethyl-3,4-dihydro-1H-pyrido[4,3-b]indol-5(2H)-yl)propanenitrile]: the inhibition at 1 µM in test [1] came out at 47%; in test [2], 8%; in test [3], 61%; in test [4], 76%.
Regarding `Cc1ccc2c(c1)c1c(n2CCNC(=O)C(C)C)CCN(C)C1` [Compound 61, N-(2-(1,2,3,4-tetrahydro-2,8-dimethylpyrido[4,3-b]indol-5-yl)ethyl)isobutyramide], the inhibition at 1 µM in test [1] worked out at 10%; in test [2], 13%; in test [3], 27%; in test [4], 46%.
For `CCOC(=O)CCn1c2c(c3cc(Cl)ccc31)CN(C)CC2` [CD17, ethyl 3-(8-chloro-1,2,3,4-tetrahydro-2-methylpyrido[4,3-b]indol-5-yl)propanoate] the same measures were 101%, 46%, 96% and 87%.
As for `Cc1ccc2c(c1)c1c(n2CCNC(=O)C2CCCC2)CCN(C)C1` [Compound 68, N-(2-(1,2,3,4-tetrahydro-2,8-dimethylpyrido[4,3-b]indol-5-yl)ethyl)cyclopentanecarboxamide], the inhibition at 1 µM came out at 15% in test [1], 31% in test [2], 40% in test [3] and 62% in test [4].
For `Cc1ccc2c(c1)c1c(n2CC(=O)O)CCN(C)C1` [CD58, 2-(1,2,3,4-tetrahydro-2,8-dimethylpyrido[4,3-b]indol-5-yl)acetic acid] the same measures were -5%, 5%, -19% and -7%.
For `Cc1ccc2c(c1)c1c(n2CCNC(=O)C2CCCNC2)CCN(C)C1` (centres unmarked) [Compound 9, N-(2-(1,2,3,4-tetrahydro-2,8-dimethylpyrido[4,3-b]indol-5-yl)ethyl)piperidine-3-carboxamide] the same measures were -5%, -44%, 29% and 20%.
Regarding `Cc1ccc2c(c1)c1c(n2CCNC(=O)OCC(Cl)(Cl)Cl)CCN(C)C1` [Compound 8, 2,2,2-trichloroethyl 2-(1,2,3,4-tetrahydro-2,8-dimethylpyrido[4,3-b]indol-5-yl)ethylcarbamate], the inhibition at 1 µM in test [1] was determined as 83%; in test [2], 74%; in test [3] it was 99%; in test [4], 90%.
In the case of `CN1CCc2c(c3cc(Cl)ccc3n2CCC(=O)NC2CCCC2)C1` [Compound 31, 3-(8-chloro-1,2,3,4-tetrahydro-2-methylpyrido[4,3-b]indol-5-yl)-N-cyclopentylpropanamide], the inhibition at 1 µM was found to be 34% in test [1], 20% in test [2], 76% in test [3] and 37% in test [4].
Consider `Cc1ccc2c(c1)c1c(n2CCBr)CCN(C)C1` [CD91, 5-(2-bromoethyl)-2,8-dimethyl-2,3,4,5-tetrahydro-1H-pyrido[4,3-b]indole], for which the inhibition at 1 µM was determined as 88% in test [1], 65% in test [2], 98% in test [3] and 86% in test [4].
For `CN1CCc2c(c3cc(Cl)ccc3n2CCCO)C1` [CD87, 3-(8-chloro-2-methyl-3,4-dihydro-1H-pyrido[4,3-b]indol-5(2H)-yl)propan-1-ol] the same measures were 35%, 18%, 79% and 79%.
As for `CCNC(=O)CCn1c2c(c3cc(C)ccc31)CN(C)CC2` [Compound 2, N-ethyl-3-(1,2,3,4-tetrahydro-2,8-dimethylpyrido[4,3-b]indol-5-yl)propanamide], the inhibition at 1 µM in test [1] was 19%; in test [2] it was 5%; in test [3], -5%; in test [4], 35%.
For `CN1CCc2c(c3cc(Cl)ccc3n2CC(=O)O)C1` [CD46, 2-(8-chloro-1,2,3,4-tetrahydro-2-methylpyrido[4,3-b]indol-5-yl)acetic acid] the same measures were 39%, -3%, 30% and 13%.
For `CN1CCc2c(c3cc(Cl)ccc3n2CC(=O)OCC2CCCCC2)C1` [Compound 14, cyclohexylmethyl 2-(8-chloro-1,2,3,4-tetrahydro-2-methylpyrido[4,3-b]indol-5-yl)acetate] the same measures were 106%, 89%, 94% and 79%.
For `CCNC(=O)CCCn1c2c(c3cc(C)ccc31)CN(C)CC2` [Compound 6, N-ethyl-4-(1,2,3,4-tetrahydro-2,8-dimethylpyrido[4,3-b]indol-5-yl)butanamide] the same measures were 23%, 0%, 45% and 59%.
For the compound `Cc1ccc2c(c1)c1c(n2CCN)CCN(C)C1` [CD62, 2-(1,2,3,4-tetrahydro-2,8-dimethylpyrido[4,3-b]indol-5-yl)ethanamine], the inhibition at 1 µM came out at 12% in test [1], 65% in test [2], 28% in test [3] and 42% in test [4].
For `Cc1ccc2c(c1)c1c(n2CCNC(=O)c2ccncc2)CCN(C)C1` [Compound 50, N-(2-(1,2,3,4-tetrahydro-2,8-dimethylpyrido[4,3-b]indol-5-yl)ethyl)isonicotinamide] the same measures were -1%, 9%, 35% and 38%.
As for `CCOC(=O)CCCn1c2c(c3cc(C)ccc31)CN(C)CC2` [Compound 5, ethyl 4-(1,2,3,4-tetrahydro-2,8-dimethylpyrido[4,3-b]indol-5-yl)butanoate], the inhibition at 1 µM in test [1] stood at 88%; in test [2], 48%; in test [3], 96%; in test [4], 74%.
For `CN1CCc2c(c3cc(Cl)ccc3n2CC(N)=O)C1` [Compound 45, 2-(8-chloro-1,2,3,4-tetrahydro-2-methylpyrido[4,3-b]indol-5-yl)acetamide] the same measures were 5%, 3%, 52% and 16%.
For `Cc1ccc2c(c1)c1c(n2CC(=O)NC(C)C)CCN(C)C1` [Compound 23, 2-(1,2,3,4-tetrahydro-2,8-dimethylpyrido[4,3-b]indol-5-yl)-N-isopropylacetamide] the same measures were 3%, 1%, 37% and 12%.
For `Cc1ccc2c(c1)c1c(n2CCNC(=O)C2CCCCC2)CCN(C)C1` [Compound 62, N-(2-(1,2,3,4-tetrahydro-2,8-dimethylpyrido[4,3-b]indol-5-yl)ethyl)cyclohexanecarboxamide] the same measures were 19%, 39%, 54% and 40%.
